From PubChem BioAssay (NCI)
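Interpolation was linear, between the two tested concentrations surrounding the appropriate level; five concentrations were tested over 48 hours in 96-well plates. GI50 = concentration required for 50% inhibition of growth. TGI denotes the concentration required for complete inhibition of growth.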

How the values were obtained:
Assay in all cases: DTP human tumour cell line panel, 48 h
NCI-H522 lung = system: NCI-H522 lung
MOLT-4 leukemia = system: MOLT-4 leukemia
ACHN renal = system: ACHN renal
NCI-H460 lung = system: NCI-H460 lung
SF-295 CNS = system: SF-295 CNS
HCT-116 colon = system: HCT-116 colon
SF-268 CNS = system: SF-268 CNS
OVCAR-8 ovarian = system: OVCAR-8 ovarian
SR leukemia = system: SR leukemia
MCF7 breast = system: MCF7 breast

Structure (SMILES) | TGI (NCI-H522 lung) [µM] | TGI (MOLT-4 leukemia) [µM] | TGI (ACHN renal) [µM] | TGI (NCI-H460 lung) [µM] | TGI (SF-295 CNS) [µM] | TGI (HCT-116 colon) [µM] | TGI (SF-268 CNS) [µM] | TGI (OVCAR-8 ovarian) [µM] | TGI (SR leukemia) [µM] | GI50 (NCI-H522 lung) [µM] | GI50 (ACHN renal) [µM] | GI50 (NCI-H460 lung) [µM] | GI50 (SF-295 CNS) [µM] | GI50 (HCT-116 colon) [µM] | GI50 (SF-268 CNS) [µM] | GI50 (OVCAR-8 ovarian) [µM] | GI50 (MCF7 breast) [µM] | TGI (MCF7 breast) [µM]
COc1cc(C(=O)C/C(CCC(=O)Nc2ccc(Cl)cc2Cl)=N/NC(=O)C(N)=O)ccc1O | > 100 | > 100 | > 100 | > 100 | > 100 | > 100 | > 100 | > 100 | – | – | – | – | – | – | – | – | – | –
Cc1nc(-c2nc(C)c(C(=O)NN(C)C)s2)sc1C(=O)NN(C)C | > 100 | > 100 | > 100 | > 100 | > 100 | – | > 100 | > 100 | 40.7 | – | – | – | – | – | – | – | – | –
CC[C@H](C)[C@H](NC(=O)Nc1ccccc1)C(=O)N(C)[C@H](C[C@@H](OC(C)=O)c1nc(C(=O)N[C@@H](Cc2ccccc2)C[C@H](C)C(=O)OC)cs1)C(C)C | 21.1 | – | > 100 | > 100 | > 100 | > 100 | > 100 | > 100 | – | 1.5 | 8.09 | 2.83 | 2.76 | 3.33 | 5.13 | 4.69 | 1.27 | > 100
CC1=C(C(=O)CC(=O)C(=O)Nc2ccccc2)Sc2ccccc2N1 | > 100 | > 100 | > 100 | > 100 | > 100 | > 100 | > 100 | > 100 | – | – | – | – | – | – | – | – | – | –
Nc1ccc2c(c1)CC1c3ccccc3C(C2)c2ccccc21 | > 100 | > 100 | > 100 | > 100 | > 100 | > 100 | > 100 | > 100 | – | – | – | – | – | – | – | – | – | –
CCOC(=O)C(Cc1ccccc1)NC(=O)OC(C)(C)C (stereo not drawn) | – | > 100 | > 100 | > 100 | > 100 | > 100 | > 100 | > 100 | – | – | – | – | – | – | – | – | – | –
O=C(/C=C/c1ccccc1O)c1cccnc1 | > 100 | > 100 | > 100 | > 100 | > 100 | > 100 | > 100 | > 100 | > 100 | – | – | – | – | – | – | – | – | –
CC(=O)C1C(=O)C(=O)N(c2ccccc2N2C(=O)C(=O)C(C(C)=O)C2=O)C1=O (stereo not drawn) | > 100 | > 100 | > 100 | > 100 | > 100 | > 100 | > 100 | > 100 | > 100 | – | – | – | – | – | – | – | – | –
Cc1ccc(S(=O)(=O)SCc2ccccc2CSS(=O)(=O)c2ccc(C)cc2)cc1 | 22.8 | 43.9 | > 100 | > 100 | > 100 | 59.6 | > 100 | 76.5 | 43.5 | – | – | – | – | – | – | – | – | –
O=C1[C@@H]2C3SC(c4ccccc43)[C@@H]2C(=O)N1c1ccccc1 | > 100 | > 100 | > 100 | > 100 | > 100 | > 100 | > 100 | > 100 | > 100 | – | – | – | – | – | – | – | – | –
CC(=O)OCC1OC(n2c(=O)n(-c3ccccc3)c(=O)c3cc(Br)cc(Br)c32)C(OC(C)=O)C(OC(C)=O)C1OC(C)=O (stereo not drawn) | > 100 | > 100 | > 100 | > 100 | > 100 | > 100 | > 100 | > 100 | – | – | – | – | – | – | – | – | – | –
O=C(O)CCCCCO | > 100 | > 100 | > 100 | > 100 | > 100 | > 100 | > 100 | > 100 | > 100 | – | – | – | – | – | – | – | – | –
